Patent US8541407B2 (ArQule, Inc., priority 2010, dated 2013)
Structures can show the parent of a compound that is named as a salt.

Target: AKT1 (Homo sapiens (Human), UniProt P31749)
Test: Inactive Akt Alpha Screen Assay
Details: non *labeled: Akt Alpha Screen assay; read-out: AKT1 biochemical assay, IC50
Method in brief: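 AKT1 activated in situ by PDK1, MAPKAPK2, lipid vesicles and ATP, then phosphorylating biotinylated crosstide for 30 min at room temperature. Stopped with 10 mM EDTA; phosphopeptide detected by AlphaScreen using phospho-AKT substrate antibody (1:350), Protein A acceptor and streptavidin donor beads, 90 min dark, ex 640/em 570 nm.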

AKT1, sequence (P31749 whole entry): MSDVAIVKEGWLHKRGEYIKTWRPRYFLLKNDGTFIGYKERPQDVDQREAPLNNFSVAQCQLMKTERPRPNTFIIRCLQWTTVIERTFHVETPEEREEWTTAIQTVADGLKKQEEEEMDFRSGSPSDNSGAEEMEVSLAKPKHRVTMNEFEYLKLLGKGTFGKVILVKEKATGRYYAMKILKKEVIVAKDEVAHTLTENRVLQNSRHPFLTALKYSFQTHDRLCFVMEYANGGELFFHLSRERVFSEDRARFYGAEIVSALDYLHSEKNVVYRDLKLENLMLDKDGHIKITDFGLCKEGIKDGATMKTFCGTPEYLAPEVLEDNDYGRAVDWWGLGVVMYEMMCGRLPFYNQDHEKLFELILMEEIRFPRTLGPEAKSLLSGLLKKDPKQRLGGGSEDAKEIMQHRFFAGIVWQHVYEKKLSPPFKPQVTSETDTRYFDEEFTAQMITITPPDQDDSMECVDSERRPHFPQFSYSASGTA

| Structure (SMILES) | IC50 [nM] |
| --- | --- |
| O=C(Nc1ccc(-c2nnc3n2-c2cccnc2Nc2ccccc2-3)cc1)c1ccc2ccccc2c1 [Example 28, N-(4-(9H-benzo[f]pyrido[2,3-b][1,2,4]triazolo[4,3-d][1,4]diazepin-3-yl)phenyl)-2-naphthamide] | 680 |
| O=C(Nc1ccc(-c2nnc3n2-c2cccnc2Nc2ccccc2-3)cc1)c1ccc(C(F)(F)F)cc1 [Example 52, N-(4-(9H-benzo[f]pyrido[2,3-b][1,2,4]triazolo[4,3-d][1,4]diazepin-3-yl)phenyl)-4-(trifluoromethyl)benzamide] | 650 |
| CC(=O)Nc1ccc(S(=O)(=O)NCc2ccc(-c3nnc4n3-c3cccnc3Nc3ccccc3-4)cc2)cc1 [Example 120, N-(4-(N-(4-(9H-benzo[f]pyrido[2,3-b][1,2,4]triazolo[4,3-d][1,4]diazepin-3-yl)benzyl)sulfamoyl)phenyl) acetamide] | 140 |
| O=C(Nc1ccc(-c2nnc3n2-c2cccnc2Nc2ccccc2-3)cc1)c1cccnc1 [Example 40, N-(4-(9H-benzo[f]pyrido[2,3-b][1,2,4]triazolo[4,3-d][1,4]diazepin-3-yl)phenyl)nicotinamide] | 260 |
| c1ccc(CNCc2ccc(-c3nnc4n3-c3cccnc3Nc3ccccc3-4)cc2)cc1 [Example 66, N-(4-(9H-benzo[f]pyrido[2,3-b][1,2,4]triazolo[4,3-d][1,4]diazepin-3-yl)benzyl)-1-phenylmethanamine] | 1900 |
| Fc1ccc(-c2nnc3n2-c2cccnc2Nc2ccccc2-3)c(F)c1 [Example 17] | 7200 |
| O=C(Nc1ccc(-c2nnc3n2-c2cccnc2Nc2ccccc2-3)cc1)c1ccc(F)c(C(F)(F)F)c1 [Example 46, N-(4-(9H-benzo[f]pyrido[2,3-b][1,2,4]triazolo[4,3-d][1,4]diazepin-3-yl)phenyl)-4-fluoro-3-(trifluoromethyl)benzamide] | 5300 |
| O=C(Nc1ccc(-c2nnc3n2-c2cccnc2Nc2ccccc2-3)cc1)c1ccc(-c2ccccc2)cc1 [Example 61, N-(4-(9H-benzo[f]pyrido[2,3-b][1,2,4]triazolo[4,3-d][1,4]diazepin-3-yl)phenyl)-[1,1′-biphenyl]-4-carboxamide] | 780 |
| O=C(NCc1ccc(-c2nnc3n2-c2cccnc2Nc2ccccc2-3)cc1)Nc1cccc(F)c1 [Example 122, 1-(4-(9H-benzo[f]pyrido[2,3-b][1,2,4]triazolo[4,3-d][1,4]diazepin-3-yl)benzyl)-3-(3-fluorophenyl)urea] | 1100 |
| CC(C)(C)c1ccc(C(=O)Nc2ccc(-c3nnc4n3-c3cccnc3Nc3ccccc3-4)cc2)cc1 [Example 44, N-(4-(9H-benzo[f]pyrido[2,3-b][1,2,4]triazolo[4,3-d][1,4]diazepin-3-yl)phenyl)-4-(tert-butyl)benzamide] | 230 |
| O=C(CCc1ccccc1)Nc1ccc(-c2nnc3n2-c2cccnc2Nc2ccccc2-3)cc1 [Example 54, N-(4-(9H-benzo[f]pyrido[2,3-b][1,2,4]triazolo[4,3-d][1,4]diazepin-3-yl)phenyl)-3-phenylpropanamide] | 1800 |
| c1c[nH]c(-c2nnc3n2-c2cccnc2Nc2ccccc2-3)c1 [Example 4, 3-(1H-pyrrol-2-yl)-9H-benzo[f]pyrido[2,3-b][1,2,4]triazolo[4,3-d][1,4]diazepine] | 7900 |
| COc1ccc(S(=O)(=O)NCCc2ccc(-c3nnc4n3-c3cccnc3Nc3ccccc3-4)cc2)cc1 [Example 109, N-(4-(9H-benzo[f]pyrido[2,3-b][1,2,4]triazolo[4,3-d][1,4]diazepin-3-yl)phenethyl)-4-methoxybenzenesulfonamide] | 9100 |
| c1ccc2c(c1)Nc1ncccc1-n1c(-c3ccc4ccccc4c3)nnc1-2 [hydrochloride] | 29000 |
| c1coc(-c2nnc3n2-c2cccnc2Nc2ccccc2-3)c1 [Example 2] | 6300 |

Next, values leading:

| IC50 [nM] | Structure (SMILES) |
| --- | --- |
| 730 | CCCC(=O)Nc1ccc(-c2nnc3n2-c2cccnc2Nc2ccccc2-3)cc1 [Example 32, N-(4-(9H-benzo[f]pyrido[2,3-b][1,2,4]triazolo[4,3-d][1,4]diazepin-3-yl)phenyl)butyramide] |
| 790 | O=C(Nc1cccc(F)c1)NC1CCN(Cc2ccc(-c3nnc4n3-c3cccnc3Nc3ccccc3-4)cc2)CC1 [Example 178, 1-(1-(4-(9H-benzo[f]pyrido[2,3-b][1,2,4]triazolo[4,3-d][1,4]diazepin-3-yl)benzyl)piperidin-4-yl)-3-(3-fluorophenyl)urea] |
| 2200 | COc1cccc(C(=O)N2CCN(Cc3ccc(-c4nnc5n4-c4cccnc4Nc4ccccc4-5)cc3)CC2)c1 [Example 138, (4-(4-(9H-benzo[f]pyrido[2,3-b][1,2,4]triazolo[4,3-d][1,4]diazepin-3-yl)benzyl)piperazin-1-yl)(3-methoxyphenyl)methanone] |
| 940 | O=C(NCCc1ccc(Cl)cc1)NC1CCN(Cc2ccc(-c3nnc4n3-c3cccnc3Nc3ccccc3-4)cc2)CC1 [Example 180, 1-(1-(4-(9H-benzo[f]pyrido[2,3-b][1,2,4]triazolo[4,3-d][1,4]diazepin-3-yl)benzyl)piperidin-4-yl)-3-(4-chlorophenethyl)urea] |
| 2100 | CCN(Cc1ccncc1)Cc1ccc(-c2nnc3n2-c2cccnc2Nc2ccccc2-3)cc1 [Example 70, N-(4-(9H-benzo[f]pyrido[2,3-b][1,2,4]triazolo[4,3-d][1,4]diazepin-3-yl)benzyl)-N-(pyridin-4-ylmethyl)ethanamine] |
| 1100 | O=C(NCc1ccc(-c2nnc3n2-c2cccnc2Nc2ccccc2-3)cc1)c1ccco1 [Example 97, N-(4-(9H-benzo[f]pyrido[2,3-b][1,2,4]triazolo[4,3-d][1,4]diazepin-3-yl)benzyl)furan-2-carboxamide] |
| 3000 | COc1cccc(S(=O)(=O)NC2CCN(Cc3ccc(-c4nnc5n4-c4cccnc4Nc4ccccc4-5)cc3)CC2)c1 [Example 150, N-(1-(4-(9H-benzo[f]pyrido[2,3-b][1,2,4]triazolo[4,3-d][1,4]diazepin-3-yl)benzyl)piperidin-4-yl)-3-methoxybenzenesulfonamide] |
| 3400 | O=C(C1CCCC1)N1CCN(Cc2ccc(-c3nnc4n3-c3cccnc3Nc3ccccc3-4)cc2)CC1 [Example 133, (4-(4-(9H-benzo[f]pyrido[2,3-b][1,2,4]triazolo[4,3-d][1,4]diazepin-3-yl)benzyl)piperazin-1-yl)(cyclopentyl)methanone] |
| 700 | COc1ccccc1NC(=O)NC1CCN(Cc2ccc(-c3nnc4n3-c3cccnc3Nc3ccccc3-4)cc2)CC1 [Example 183, 1-(1-(4-(9H-benzo[f]pyrido[2,3-b][1,2,4]triazolo[4,3-d][1,4]diazepin-3-yl)benzyl)piperidin-4-yl)-3-(2-methoxyphenyl)urea] |
| 1800 | CCC(=O)Nc1ccc(-c2nnc3n2-c2cccnc2Nc2ccccc2-3)cc1 [Example 39, N-(4-(9H-benzo[f]pyrido[2,3-b][1,2,4]triazolo[4,3-d][1,4]diazepin-3-yl)phenyl)propionamide] |
| 1200 | O=C(Nc1cccc(Cl)c1)NC1CCN(Cc2ccc(-c3nnc4n3-c3cccnc3Nc3ccccc3-4)cc2)CC1 [Example 176, 1-(1-(4-(9H-benzo[f]pyrido[2,3-b][1,2,4]triazolo[4,3-d][1,4]diazepin-3-yl)benzyl)piperidin-4-yl)-3-(3-chlorophenyl)urea] |
| 1200 | COc1ccc(NC(=O)NC2CCN(Cc3ccc(-c4nnc5n4-c4cccnc4Nc4ccccc4-5)cc3)CC2)cc1Cl [Example 172, 1-(1-(4-(9H-benzo[f]pyrido[2,3-b][1,2,4]triazolo[4,3-d][1,4]diazepin-3-yl)benzyl)piperidin-4-yl)-3-(3-chloro-4-methoxyphenyl)urea] |
| 1600 | c1ccc2c(c1)Nc1ncccc1-n1c(-c3ccc(CN4CCOCC4)cc3)nnc1-2 [Example 84, 4-(4-(9H-benzo[f]pyrido[2,3-b][1,2,4]triazolo[4,3-d][1,4]diazepin-3-yl)benzyl)morpholine] |
| 4800 | CCN(CC)C(=O)C1CCCN(Cc2ccc(-c3nnc4n3-c3cccnc3Nc3ccccc3-4)cc2)C1 (centres unmarked) [Example 81, 1-(4-(9H-benzo[f]pyrido[2,3-b][1,2,4]triazolo[4,3-d][1,4]diazepin-3-yl)benzyl)-N,N-diethylpiperidine-3-carboxamide] |
| 4300 | c1ccc2c(c1)Nc1ncccc1-n1c(-c3ccc(CN4CCCC4)cc3)nnc1-2 [Example 65, 3-(4-(pyrrolidin-1-ylmethyl)phenyl)-9H-benzo[f]pyrido[2,3-b][1,2,4]triazolo[4,3-d][1,4]diazepine] |
| 330 | O=C(Nc1ccc(F)cc1)NC1CCN(Cc2ccc(-c3nnc4n3-c3cccnc3Nc3ccccc3-4)cc2)CC1 [Example 165, 1-(1-(4-(9H-benzo[f]pyrido[2,3-b][1,2,4]triazolo[4,3-d][1,4]diazepin-3-yl)benzyl)piperidin-4-yl)-3-(4-fluorophenyl)urea] |
| 2000 | N#Cc1cccc(C(=O)N2CCN(Cc3ccc(-c4nnc5n4-c4cccnc4Nc4ccccc4-5)cc3)CC2)c1 [Example 159, 3-(4-(4-(9H-benzo[f]pyrido[2,3-b][1,2,4]triazolo[4,3-d][1,4]diazepin-3-yl)benzyl)piperazine-1-carbonyl)benzonitrile] |
| 1100 | CN(CCc1ccccn1)Cc1ccc(-c2nnc3n2-c2cccnc2Nc2ccccc2-3)cc1 [Example 75, N-(4-(9H-benzo[f]pyrido[2,3-b][1,2,4]triazolo[4,3-d][1,4]diazepin-3-yl)benzyl)-N-methyl-2-(pyridin-2-yl)ethanamine] |
| 4900 | O=C(c1ccc(F)c(F)c1)N1CCN(Cc2ccc(-c3nnc4n3-c3cccnc3Nc3ccccc3-4)cc2)CC1 [Example 143, (4-(4-(9H-benzo[f]pyrido[2,3-b][1,2,4]triazolo[4,3-d][1,4]diazepin-3-yl)benzyl)piperazin-1-yl)(3,4-difluorophenyl)methanone] |
| 6700 | c1ccc2c(c1)Nc1ncccc1-n1c(-c3ccc(CNCC4CC4)cc3)nnc1-2 [Example 93, N-(4-(9H-benzo[f]pyrido[2,3-b][1,2,4]triazolo[4,3-d][1,4]diazepin-3-yl)benzyl)-1-cyclopropylmethanamine] |
